This note sets out measurements from ChEMBL document CHEMBL5665443, “Enzyme Inhibitor Single Concentration assay results for EUbOPEN Chemogenomics Library” (2024).

Holding throughout (settings): Compound Concentration 10.0 uM, Hit No
In assay [1] the target is DNA-3-methyladenine glycosylase (Homo sapiens) (UniProt P29372).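 Note: enzyme assay where MPG cuts a quenched duplex DNA oligonucleotide probe, paired with APE1 for strand incision and turnover, read as fluorescence at 594 nm.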
Description: Inhibition of MPG by quantifying inhibition of MPG-mediated cleavage and dissociation of quenched duplex DNA oligonucleotides, measured as fluorescence at 594 nm. To generate a functional strand incision and increase turn-over this assay is coupled to APE1.
For assay [2], the target named is T1, Adenine DNA glycosylase (Homo sapiens) (UniProt Q9UIF7).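 Note: human MUTYH activity read as 594 nm fluorescence from cleavage and release of a quenched DNA duplex, coupled with APE1 for strand incision, lower signal meaning inhibition.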
T1 sequence (whole entry): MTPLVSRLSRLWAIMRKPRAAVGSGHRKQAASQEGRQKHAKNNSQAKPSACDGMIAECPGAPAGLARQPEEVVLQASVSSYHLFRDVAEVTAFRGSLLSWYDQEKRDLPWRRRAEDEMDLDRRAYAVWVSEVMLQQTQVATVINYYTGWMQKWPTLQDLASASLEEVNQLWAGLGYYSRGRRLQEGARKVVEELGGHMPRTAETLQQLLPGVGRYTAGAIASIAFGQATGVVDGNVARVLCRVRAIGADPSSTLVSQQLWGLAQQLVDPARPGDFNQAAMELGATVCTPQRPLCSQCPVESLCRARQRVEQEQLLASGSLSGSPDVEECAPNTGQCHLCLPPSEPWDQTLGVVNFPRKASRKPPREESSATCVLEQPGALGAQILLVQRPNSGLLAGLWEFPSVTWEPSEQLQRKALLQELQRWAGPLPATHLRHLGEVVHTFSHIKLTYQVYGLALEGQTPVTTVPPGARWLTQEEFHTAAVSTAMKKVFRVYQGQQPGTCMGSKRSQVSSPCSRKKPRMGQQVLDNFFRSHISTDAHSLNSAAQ
Description: Inhibition of MUTYH by quantifying inhibition of MUTYH-mediated cleavage and dissociation of quenched duplex DNA oligonucleotides, measured as fluorescence at 594 nm. To generate a functional strand incision and increase turn-over this assay is coupled to APE1.

For assay [3], the target named is Endonuclease 8-like 1 (Homo sapiens) (UniProt Q96FI4).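 Note: fluorescence at 594 nm from quenched duplex DNA oligonucleotides released by NEIL1 cleavage and strand separation, reported as reduction of this enzyme activity.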
Sequence of Endonuclease 8-like 1 (Homo sapiens) (Q96FI4 whole entry): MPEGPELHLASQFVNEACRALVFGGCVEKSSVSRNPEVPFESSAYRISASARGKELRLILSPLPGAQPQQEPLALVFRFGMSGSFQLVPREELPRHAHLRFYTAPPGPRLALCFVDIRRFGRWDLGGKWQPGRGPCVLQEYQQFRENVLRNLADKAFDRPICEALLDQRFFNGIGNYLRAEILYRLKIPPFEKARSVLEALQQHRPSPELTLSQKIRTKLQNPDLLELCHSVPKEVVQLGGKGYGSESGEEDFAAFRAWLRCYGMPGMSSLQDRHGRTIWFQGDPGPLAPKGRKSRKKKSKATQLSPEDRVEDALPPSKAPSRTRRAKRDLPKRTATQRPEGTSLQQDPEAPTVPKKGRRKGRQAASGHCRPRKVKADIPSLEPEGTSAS
Description: Inhibition of NEIL1 by quantifying inhibition of NEIL1-mediated cleavage and dissociation of quenched duplex DNA oligonucleotides, measured as fluorescence at 594 nm.
Assay [4] concerns the target T2, Endonuclease 8-like 2 (Homo sapiens) (UniProt Q969S2).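 Note: fluorescence at 594 nm reports NEIL2 cutting and release of a quenched double-stranded DNA oligo substrate, reduced signal read as inhibition.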
T2 sequence (whole entry): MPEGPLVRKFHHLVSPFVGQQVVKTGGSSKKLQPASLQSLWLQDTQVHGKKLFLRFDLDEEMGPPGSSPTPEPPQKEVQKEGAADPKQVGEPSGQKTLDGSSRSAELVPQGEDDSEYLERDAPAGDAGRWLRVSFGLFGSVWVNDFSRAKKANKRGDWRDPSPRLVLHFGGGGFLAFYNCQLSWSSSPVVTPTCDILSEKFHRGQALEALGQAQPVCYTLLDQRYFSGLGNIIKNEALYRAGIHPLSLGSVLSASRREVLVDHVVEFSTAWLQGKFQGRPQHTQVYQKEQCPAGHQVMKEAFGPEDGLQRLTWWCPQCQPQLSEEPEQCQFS
Description: Inhibition of NEIL2 by quantifying inhibition of NEIL2-mediated cleavage and dissociation of quenched duplex DNA oligonucleotides, measured as fluorescence at 594 nm.

Assay [5] has as its target N-glycosylase/DNA lyase (Homo sapiens) (UniProt O15527).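 Note: OGG1 cleavage of a quenched duplex DNA oligonucleotide, coupled to APE1 for strand incision, read as fluorescence at 594 nm.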
Description: Inhibition of OGG1 by quantifying inhibition of OGG1-mediated cleavage and dissociation of quenched duplex DNA oligonucleotides, measured as fluorescence at 594 nm. To generate a functional strand incision and increase turn-over this assay is coupled to APE1.
The target in assay [6] is T3, Single-strand selective monofunctional uracil DNA glycosylase (Homo sapiens) (UniProt Q53HV7).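 Note: enzymatic SMUG1 assay coupled with APE1, reading fluorescence at 594 nm released when a quenched double-stranded DNA oligonucleotide substrate is cleaved and separated.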
T3 sequence (whole entry): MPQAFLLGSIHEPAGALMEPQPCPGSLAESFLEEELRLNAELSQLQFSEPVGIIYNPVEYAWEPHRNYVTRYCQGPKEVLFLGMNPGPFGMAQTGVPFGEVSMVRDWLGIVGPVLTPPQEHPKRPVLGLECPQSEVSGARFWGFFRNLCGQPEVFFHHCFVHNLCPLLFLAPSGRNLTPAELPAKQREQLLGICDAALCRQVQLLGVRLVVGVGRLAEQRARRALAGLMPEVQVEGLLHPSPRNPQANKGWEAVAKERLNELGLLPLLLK
Description: Inhibition of SMUG1 by quantifying inhibition of SMUG1-mediated cleavage and dissociation of quenched duplex DNA oligonucleotides, measured as fluorescence at 594 nm. To generate a functional strand incision and increase turn-over this assay is coupled to APE1.

Assay [7] concerns the target G/T mismatch-specific thymine DNA glycosylase (Homo sapiens) (UniProt Q13569).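 Note: human TDG cleavage of quenched duplex DNA oligonucleotides coupled to APE1, strand release read as fluorescence at 594 nm, inhibition of TDG activity.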
Description: Inhibition of TDG by quantifying inhibition of TDG-mediated cleavage and dissociation of quenched duplex DNA oligonucleotides, measured as fluorescence at 594 nm. To generate a functional strand incision and increase turn-over this assay is coupled to APE1.
In assay [8] the target is Uracil-DNA glycosylase (Homo sapiens) (UniProt P13051).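 Note: UNG excision on a quenched double-stranded DNA oligo probe, with APE1 added for strand incision and turnover, read as fluorescence at 594 nm as strands separate.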
Sequence of Uracil-DNA glycosylase (Homo sapiens) (P13051 whole entry, the tested form may be a part): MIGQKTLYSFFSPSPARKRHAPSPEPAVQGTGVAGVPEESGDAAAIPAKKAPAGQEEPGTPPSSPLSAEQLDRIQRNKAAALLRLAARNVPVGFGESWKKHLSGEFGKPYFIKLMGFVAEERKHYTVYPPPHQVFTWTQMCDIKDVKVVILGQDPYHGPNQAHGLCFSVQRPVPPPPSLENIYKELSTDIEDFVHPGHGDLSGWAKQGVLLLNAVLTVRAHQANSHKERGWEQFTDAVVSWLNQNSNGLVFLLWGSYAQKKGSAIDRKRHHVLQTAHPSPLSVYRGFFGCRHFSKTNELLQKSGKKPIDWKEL
Description: Inhibition of UNG by quantifying inhibition of UNG-mediated cleavage and dissociation of quenched duplex DNA oligonucleotides, measured as fluorescence at 594 nm. To generate a functional strand incision and increase turn-over this assay is coupled to APE1.
Assay [9] deals with Methyl-CpG-binding domain protein 4 (Homo sapiens) (UniProt O95243).
Sequence of Methyl-CpG-binding domain protein 4 (Homo sapiens) (O95243 whole entry, the tested form may be a part): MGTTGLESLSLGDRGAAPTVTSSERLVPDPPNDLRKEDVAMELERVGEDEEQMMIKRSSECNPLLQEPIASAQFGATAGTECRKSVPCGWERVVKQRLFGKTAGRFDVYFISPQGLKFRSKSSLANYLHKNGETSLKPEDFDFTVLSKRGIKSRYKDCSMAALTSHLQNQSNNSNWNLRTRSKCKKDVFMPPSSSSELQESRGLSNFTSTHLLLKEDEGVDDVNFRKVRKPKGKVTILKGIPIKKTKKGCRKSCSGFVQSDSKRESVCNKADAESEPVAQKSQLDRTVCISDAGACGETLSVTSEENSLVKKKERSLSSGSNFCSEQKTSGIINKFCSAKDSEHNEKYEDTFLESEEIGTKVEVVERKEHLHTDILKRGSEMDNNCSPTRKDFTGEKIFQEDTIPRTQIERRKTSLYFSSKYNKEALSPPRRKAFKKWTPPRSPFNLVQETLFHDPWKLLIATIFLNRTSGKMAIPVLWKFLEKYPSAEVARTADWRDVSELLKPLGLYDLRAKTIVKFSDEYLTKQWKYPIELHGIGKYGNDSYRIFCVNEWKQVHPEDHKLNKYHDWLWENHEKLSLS
Description: Inhibition of MBD4 by quantifying inhibition of MBD4-mediated cleavage and dissociation of quenched duplex DNA oligonucleotides, measured as fluorescence at 594 nm. To generate a functional strand incision and increase turn-over this assay is coupled to APE1.
Assay [10] addresses T4, Endonuclease III-like protein 1 (Homo sapiens) (UniProt P78549).
T4 sequence (whole entry): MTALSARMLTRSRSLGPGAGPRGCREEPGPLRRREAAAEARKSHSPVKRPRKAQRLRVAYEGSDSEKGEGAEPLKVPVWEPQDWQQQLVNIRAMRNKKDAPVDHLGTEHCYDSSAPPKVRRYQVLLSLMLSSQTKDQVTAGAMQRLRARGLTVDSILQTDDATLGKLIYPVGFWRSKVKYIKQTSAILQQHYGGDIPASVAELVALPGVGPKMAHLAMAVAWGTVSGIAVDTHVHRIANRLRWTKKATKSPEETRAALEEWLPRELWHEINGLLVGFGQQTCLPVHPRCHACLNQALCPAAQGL
Description: Inhibition of NTHL1 by quantifying inhibition of NTHL1-mediated cleavage and dissociation of quenched duplex DNA oligonucleotides, measured as fluorescence at 594 nm.

The inhibition is the relative decrease from the control value, in per cent.

Each structure is given as a SMILES string. Where “and” joins values, the source holds several entries; their conditions need not be identical. Equal entries are not always repeated.

Sequence of N-glycosylase/DNA lyase (Homo sapiens) (O15527 whole entry): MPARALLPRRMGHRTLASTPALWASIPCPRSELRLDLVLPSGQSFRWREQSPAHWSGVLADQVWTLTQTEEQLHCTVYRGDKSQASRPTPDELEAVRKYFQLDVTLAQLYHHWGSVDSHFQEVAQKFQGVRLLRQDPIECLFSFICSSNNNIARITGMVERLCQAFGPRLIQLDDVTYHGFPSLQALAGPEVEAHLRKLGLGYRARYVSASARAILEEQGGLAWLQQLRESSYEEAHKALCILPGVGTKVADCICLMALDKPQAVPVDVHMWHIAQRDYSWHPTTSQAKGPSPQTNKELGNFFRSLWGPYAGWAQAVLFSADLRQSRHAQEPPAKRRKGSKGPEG
Sequence of DNA-3-methyladenine glycosylase (Homo sapiens) (P29372 whole entry): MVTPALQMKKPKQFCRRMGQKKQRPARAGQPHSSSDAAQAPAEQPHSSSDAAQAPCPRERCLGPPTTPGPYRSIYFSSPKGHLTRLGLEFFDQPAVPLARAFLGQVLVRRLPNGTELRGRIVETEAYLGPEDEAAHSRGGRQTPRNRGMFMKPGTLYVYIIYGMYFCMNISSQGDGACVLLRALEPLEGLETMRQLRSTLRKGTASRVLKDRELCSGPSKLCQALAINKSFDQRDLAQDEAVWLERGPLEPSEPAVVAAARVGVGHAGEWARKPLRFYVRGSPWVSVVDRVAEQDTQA
Sequence of G/T mismatch-specific thymine DNA glycosylase (Homo sapiens) (Q13569 whole entry): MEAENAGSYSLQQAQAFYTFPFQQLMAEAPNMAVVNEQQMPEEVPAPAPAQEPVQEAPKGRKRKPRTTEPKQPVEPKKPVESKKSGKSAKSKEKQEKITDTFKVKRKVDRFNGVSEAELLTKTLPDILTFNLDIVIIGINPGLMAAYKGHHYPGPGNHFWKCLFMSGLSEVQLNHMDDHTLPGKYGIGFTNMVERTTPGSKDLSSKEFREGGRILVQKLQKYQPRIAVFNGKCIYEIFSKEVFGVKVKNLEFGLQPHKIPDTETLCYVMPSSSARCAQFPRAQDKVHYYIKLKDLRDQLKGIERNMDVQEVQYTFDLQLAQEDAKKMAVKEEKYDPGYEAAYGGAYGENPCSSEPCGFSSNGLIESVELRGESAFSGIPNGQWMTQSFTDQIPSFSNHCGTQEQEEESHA

As for `N[C@H](C(=O)O)c1ccc(C(=O)O)c(C(=O)O)c1`, the inhibition in assay [1] is -6.3%; in [2] it was 10.4%; in [3], -4.06%; in assay [4], 5.76%; in assay [5], -7.96%; in [6], -4.49%. Besides, the inhibition in assay [7] was 4.6%.
For the compound `CCC(=N\O)/C(C)=C/c1ccc(F)cc1`, the inhibition was 12.6% in assay [1]; -8.19% and -8.38% in assay [2]; 0.164% and -0.139% in assay [3]; -6.1% and 1.43% in [4]; 8.29% and 3.66% in assay [5]; 15.6% and 4.45% in assay [6]. In addition, in assay [8], the inhibition was -0.0369% and -2.61%.
For the compound `COCCCN1CCC(NC(=O)c2cc(Cl)c(N)c3c2OCC3)CC1`, the inhibition in assay [1] is 8.09%; in assay [2] it was 17.3%; in assay [3], -6.73%; in assay [4], -0.983%; in [5], -3.13%; in assay [7], 2.17%.
Consider `CC(C)NCC(O)COc1cccc2[nH]ccc12` (stereo unspecified), for which the inhibition was 6.08% in assay [1]; -5.48% in [2]; 2.76% in assay [3]; 4.01% in assay [4]; -5.87% in assay [5]; 3.97% in assay [7]. Besides, the inhibition in assay [8] is -6.49%.
Regarding `CNC[C@H](O)c1ccc(O)c(O)c1`, the inhibition in [9] came out at 46.8%; in [1] it was 10.2%; in assay [2], 28.8%; in [3], 9.88%; in [5] it was 30.3%; in assay [7] it was 37.5%.
For `c1ccc(NCc2ccc(CNc3ccccn3)cc2)nc1`, the inhibition in assay [1] was -3.14%; in [2], -5.87%; in assay [3], 3.5%; in assay [4] it was -4.48%; in [5], -3.65%; in assay [7], 13.4%.
Take `Cc1cccc(NC(=O)N[C@@H]2N=C(c3ccccc3)c3ccccc3N(C)C2=O)c1`: the inhibition was 17% in assay [1]; 10.5% in [2]; -1.73% in [4]; -6.8% in assay [5]; -5.61% in [6]; 12.3% in [7].
As for `CN1CCN2c3ncccc3Cc3ccccc3C2C1` (stereo unspecified), the inhibition is -7.53% in assay [1]; -2.92% in assay [2]; 3.95% in assay [3]; 10% in [4]; -6.38% in assay [5]; -8.16% in assay [7].
With `CC(C)(C)c1ccc(S(=O)(=O)Nc2ccc(Cl)cc2C(=O)c2cc[n+]([O-])cc2)cc1`, the inhibition in [1] is 1.3%; in assay [2], -4.97%; in [3] it was 3.35%; in assay [4] it was -0.483%; in assay [5], 1.79%; in assay [7], -0.448%.
For `CC(C)Cc1ccc([C@@H](C)C(=O)NS(C)(=O)=O)cc1`, the inhibition is -0.553% in assay [1]; 19% in assay [2]; 1.28% in assay [3]; -1.98% in [4]; -2.17% in assay [5]; 0.354% in [6]. Also, the inhibition in [7] was 3.68%; in assay [8], -7.7%.
For `CCc1nc2c(C)cc(C)nc2[nH]1`, the inhibition in assay [1] is 5.35%; in [2] it was -7.66%; in assay [3], 2.46%; in assay [4], 6.75%; in assay [7] it was -2.03%.
For the compound `Cc1onc(-c2ccccc2Cl)c1C(=O)N(C)c1ccc(Cl)cc1`, the inhibition in assay [1] is -3.37%; in assay [2], 15.8%; in [3] it was -2.13%; in [4], 7%; in [5], -3.42%; in assay [6] it was 3.65%. The results for the inhibition in [7] and in assay [8] were 12.4% and -8.91%, respectively.
Take `CCCn1c(=O)c2[nH]c(-c3ccc(OCC(=O)Nc4ccc(C#N)cc4)cc3)nc2n(CCC)c1=O`: the inhibition in assay [1] is -6.3%; in assay [2], -3.95%; in [5], -7.63%; in [7], 1.64%; in assay [8], -6.42%.
Take `O=c1ccn([C@@H]2O[C@H](COP(=O)(O)OP(=O)(O)O)[C@@H](O)[C@H]2O)c(=O)[nH]1`: the inhibition is -2.06% in assay [1]; 23.4% in assay [2]; -1.39% in assay [3]; 2.51% in assay [4]; -4.12% in assay [5]; 19.1% in assay [7]. The inhibition in [8] is -4.06%.
As to `Clc1ccc2nsnc2c1NC1=NCCN1`, the inhibition in [1] was 6.04%; in assay [2] it was -8.81%; in assay [3] it was -3.76%; in assay [4], 0.515%; in assay [5], -1.01%; in [6], 2.87%. The results for the inhibition in assay [7] and in [8] were 12% and -7.76%, respectively.
As for `Cc1nc(C(=O)N2CCC[C@H]2Cc2nnc(-c3ccccc3)o2)c(-c2ccccc2F)s1`, the inhibition in [9] is -9.49%; in [1], -2.02%; in [3], 2.46%; in assay [4], -1.23%; in assay [10] it was 4.86%; in assay [5], -0.535%. Also, the figures for the inhibition in assay [6], in [7] and in assay [8] were -4.93%, 15% and -9.58%, respectively.
As for `Nc1nc(NCCc2ccc(O)cc2)nc2nc(-c3ccco3)nn12`, the inhibition is -1.9% in [1]; 18.6% in assay [2]; -1.69% in [3]; 6% in assay [4]; -7.81% in [5]; -6.72% in [6]. Further, in assay [7], the inhibition is -0.119%.
Take `COC(=O)C1=C(C)NC(C)=C(C(=O)OC(C)C)C1c1cccc2nonc12` (stereo unspecified): the inhibition in [9] was 3.95%; in assay [1], -0.967%; in [3], 1.94%; in assay [4] it was -0.86%; in [10], 15.4%; in assay [5], -6.65%. The inhibition was 0.608% in assay [6], 5.72% in assay [7] and -3.24% in [8].
Regarding `CN1C[C@@H](NS(=O)(=O)N(C)C)C[C@@H]2c3cccc4c3c(cn4C)C[C@H]21`, the inhibition was 12.1% in assay [9]; 11.2% in assay [1]; 13.1% in assay [3]; -0.605% in assay [4]; -8.51% in assay [10]; -5.21% in assay [5]. The inhibition is 2.87% in assay [6], 7.57% in [7] and -6.05% in assay [8].
On to `Cc1cnc(CNCC2(F)CCN(C(=O)c3ccc(F)c(Cl)c3)CC2)nc1`, for which the inhibition in [1] is 6.04%; in [2], -3.43%; in [3], 2.32%; in [4], 7.5%; in assay [5], -1.55%; in assay [6], -8.17%. The inhibition in assay [7] is 6.93%; in assay [8], -8.07%.
Regarding `Clc1cccc(Cl)c1NC1=NCCN1`, the inhibition in assay [1] is -5.72%; in [2] it was 14.7%; in assay [3], -1.69%; in assay [4], 1.76%; in [5], -5.49%; in assay [7] it was 0.825%.
